Consider 19 compounds from patent publication US12059422B2 (MEI Pharma, Inc., priority 2011, dated 2024).

One experiment addresses T1, PI3K alpha (Homo sapiens, UniProt P42336).
T1 construct: purchased Invitrogen Corp., Carlsbad, CA, USA
Put plainly: Luciferase-based luminescence assay (KinaseGlo), PI3K alpha enzymatic activity. It is filed as biochemical. Particulars: inhibition of enzymatic activity, 25 μM ATP, read-out: IC50 p110α. The essentials:
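KinaseGlo luminescence measured ATP remaining after PIP2 (50 μM) phosphorylation with 25 μM ATP in HEPES pH 7.5 buffer with CHAPS and DTT. Final enzyme was 1.65 nM alpha (1 h reaction) or 6.86 nM delta (2 h reaction). IC50 was curve-fitted from 10 concentrations.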

A further experiment addresses T2, PI3Kγ (Mus musculus, UniProt Q9JHG7).
T2 construct: endogenous in cells; host or cells: RAW 264.7 (ATCC #TIB-71)
Put plainly: ELISA assay for PI3Kγ: in-cell ELISA, phosphorylation of AKT (Ser473) in RAW 264.7 cells. It is filed as cell-based. Particulars: cellular, pAKT (Ser473), C5a stimulation, read-out: IC50 p110γ. On the procedure: PI3K gamma (PI3Kγ) activity was determined by measuring the phosphorylation of AKT (Ser473) using an in-cell ELISA assay. RAW 264.7 (mouse macrophage) cells were obtained from ATCC (ATCC #TIB-71). Growth medium was DMEM (CellGro #CV-10-013-CV) supplemented with 10% fetal bovine serum, 100 IU/mL penicillin, 100 μg/mL streptomycin, and 1×MEM non-essential amino acids. Phosphate buffered saline (PBS) contained 2.7 M NaCl, 54 mM KCl, 86 mM […] (dibasic, anhydrous), and 28 mM […] (monobasic, anhydrous) at pH 7.2. Stimulation mixture (10×) was 500 ng/mL recombinant human complement component C5a (R&D systems #2037-C5-025) diluted in serum-free DMEM medium (CellGro #CV-10-013-CV). Compounds for testing were dissolved and serially diluted in 100% DMSO (total of 10 concentrations), then diluted in serum-free DMEM to 2× final assay concentration. Fixative solution (2×) was 8% formaldehyde (Amresco #M134) diluted in PBS. Permeabilization solution was PBS supplemented with 0.10% Triton X-100. Blocking buffer was obtained from LiCor (LiCor #927-40000). Wash buffer was PBS supplemented with 0.1% Tween-20. Primary antibody solution was rabbit anti-pAKT^S473 monoclonal antibody (Cell Signaling #4060) and mouse anti-total S6 (Santa Cruz #74459) diluted 1:500 and 1:2000, respectively, in the blocking buffer. Secondary antibody solution was IRDye 800CW-conjugated goat anti-rabbit IgG (LiCor #926-32211) and IRDye 680LT-conjugated goat anti-mouse IgG (LiCor #926-68020) diluted 1:1000 and 1:2000, respectively, in the blocking buffer.
RAW 264.7 cells were subcultured in growth medium and seeded into flat, clear bottom, 96-well plates (Corning #3904) at 70000 cells/well, then incubated overnight in a 37° C., 5% CO2 incubator. Growth medium in plates was replaced with 100 μL/well serum-free DMEM and incubated overnight in a 37° C., 5% CO2 incubator. Fresh serum-free DMEM (50 μL/well) was added to plates. Compound treatment was performed by adding 50 μL/well of 2× compound mixture to plates and incubating for 2 hrs at 37° C., 5% CO2, after which 11 μL/well of 10× stimulation mixture was added and plates were incubated for 3 min at 37° C., 5% CO2. Fixation was performed by adding 110 μL/well of 2× fixative solution to plates and incubating for 20 min at room temperature. Permeabilization was performed by replacing fixation solution with 150 μL/well permeabilization solution and incubating for 10 min at room temperature. Permeabilization was repeated (for a total of 2 times). Permeabilization solution was replaced with 100 μL/well blocking buffer and plates were incubated for 1 hr at room temperature, after which 100 μL/well of primary antibody solution was added and plates were incubated overnight at 4° C. Plates were washed with wash buffer, after which 100 μL/well of secondary antibody solution was added to the plates and incubated in the dark for 1 hr at room temperature. Plates were washed with wash buffer, followed by awash with PBS. After completely removing PBS, plates were scanned on the Licor Odyssey Imager. Images were quantified using Licor Odyssey application software. IC50 values were determined by curve fitting using a Collaborative Drug Discovery database (www.collaborativedrug.com).

T1 sequence (P42336 whole entry, species assumed): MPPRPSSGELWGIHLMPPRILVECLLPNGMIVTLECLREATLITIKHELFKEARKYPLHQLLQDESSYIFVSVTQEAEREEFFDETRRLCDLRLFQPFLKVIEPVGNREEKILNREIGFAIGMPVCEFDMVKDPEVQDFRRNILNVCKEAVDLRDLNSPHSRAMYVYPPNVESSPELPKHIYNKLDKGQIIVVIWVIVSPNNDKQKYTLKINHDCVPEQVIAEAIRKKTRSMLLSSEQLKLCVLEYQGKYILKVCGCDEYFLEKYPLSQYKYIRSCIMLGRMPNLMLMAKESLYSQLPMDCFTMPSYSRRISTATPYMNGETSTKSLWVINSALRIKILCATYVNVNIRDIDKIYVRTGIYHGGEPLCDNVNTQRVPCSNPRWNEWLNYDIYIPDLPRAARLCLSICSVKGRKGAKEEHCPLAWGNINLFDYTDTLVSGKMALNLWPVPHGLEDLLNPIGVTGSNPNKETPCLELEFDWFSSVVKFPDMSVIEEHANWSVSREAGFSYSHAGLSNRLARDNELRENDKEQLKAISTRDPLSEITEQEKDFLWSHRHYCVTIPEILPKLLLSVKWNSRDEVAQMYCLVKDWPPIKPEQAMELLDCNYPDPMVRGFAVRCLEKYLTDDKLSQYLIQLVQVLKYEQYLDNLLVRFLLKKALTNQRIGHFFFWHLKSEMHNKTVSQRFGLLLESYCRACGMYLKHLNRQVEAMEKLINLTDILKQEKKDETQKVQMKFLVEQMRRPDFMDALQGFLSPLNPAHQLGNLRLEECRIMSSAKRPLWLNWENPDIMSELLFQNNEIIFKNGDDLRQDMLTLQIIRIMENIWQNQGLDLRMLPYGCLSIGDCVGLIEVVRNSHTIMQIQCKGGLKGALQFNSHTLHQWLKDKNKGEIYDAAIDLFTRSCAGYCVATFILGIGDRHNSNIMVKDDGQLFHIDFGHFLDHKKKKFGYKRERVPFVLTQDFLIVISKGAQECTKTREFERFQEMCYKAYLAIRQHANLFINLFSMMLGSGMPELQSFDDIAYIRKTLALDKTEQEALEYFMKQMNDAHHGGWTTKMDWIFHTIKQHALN
T1 sequence (P27986 whole entry partner, species assumed): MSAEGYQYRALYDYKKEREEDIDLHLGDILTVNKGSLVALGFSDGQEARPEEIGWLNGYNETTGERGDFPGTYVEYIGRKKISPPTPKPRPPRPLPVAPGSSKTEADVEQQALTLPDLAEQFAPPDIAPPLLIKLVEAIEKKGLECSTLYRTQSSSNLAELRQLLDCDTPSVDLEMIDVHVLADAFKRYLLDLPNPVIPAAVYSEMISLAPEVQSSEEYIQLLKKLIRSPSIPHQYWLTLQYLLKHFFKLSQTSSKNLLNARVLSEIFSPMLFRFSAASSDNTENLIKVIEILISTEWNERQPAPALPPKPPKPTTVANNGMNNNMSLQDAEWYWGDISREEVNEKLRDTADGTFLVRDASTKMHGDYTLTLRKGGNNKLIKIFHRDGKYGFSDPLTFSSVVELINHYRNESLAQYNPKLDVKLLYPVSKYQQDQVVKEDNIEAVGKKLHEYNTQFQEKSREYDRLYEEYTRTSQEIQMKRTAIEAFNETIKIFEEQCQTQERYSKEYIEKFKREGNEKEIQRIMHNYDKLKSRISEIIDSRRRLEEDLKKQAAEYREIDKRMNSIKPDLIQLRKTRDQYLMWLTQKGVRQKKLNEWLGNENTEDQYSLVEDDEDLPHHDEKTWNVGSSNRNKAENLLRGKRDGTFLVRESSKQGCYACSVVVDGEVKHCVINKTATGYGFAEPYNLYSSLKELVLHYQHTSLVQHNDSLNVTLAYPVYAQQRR
T2 sequence (Q9JHG7 whole entry): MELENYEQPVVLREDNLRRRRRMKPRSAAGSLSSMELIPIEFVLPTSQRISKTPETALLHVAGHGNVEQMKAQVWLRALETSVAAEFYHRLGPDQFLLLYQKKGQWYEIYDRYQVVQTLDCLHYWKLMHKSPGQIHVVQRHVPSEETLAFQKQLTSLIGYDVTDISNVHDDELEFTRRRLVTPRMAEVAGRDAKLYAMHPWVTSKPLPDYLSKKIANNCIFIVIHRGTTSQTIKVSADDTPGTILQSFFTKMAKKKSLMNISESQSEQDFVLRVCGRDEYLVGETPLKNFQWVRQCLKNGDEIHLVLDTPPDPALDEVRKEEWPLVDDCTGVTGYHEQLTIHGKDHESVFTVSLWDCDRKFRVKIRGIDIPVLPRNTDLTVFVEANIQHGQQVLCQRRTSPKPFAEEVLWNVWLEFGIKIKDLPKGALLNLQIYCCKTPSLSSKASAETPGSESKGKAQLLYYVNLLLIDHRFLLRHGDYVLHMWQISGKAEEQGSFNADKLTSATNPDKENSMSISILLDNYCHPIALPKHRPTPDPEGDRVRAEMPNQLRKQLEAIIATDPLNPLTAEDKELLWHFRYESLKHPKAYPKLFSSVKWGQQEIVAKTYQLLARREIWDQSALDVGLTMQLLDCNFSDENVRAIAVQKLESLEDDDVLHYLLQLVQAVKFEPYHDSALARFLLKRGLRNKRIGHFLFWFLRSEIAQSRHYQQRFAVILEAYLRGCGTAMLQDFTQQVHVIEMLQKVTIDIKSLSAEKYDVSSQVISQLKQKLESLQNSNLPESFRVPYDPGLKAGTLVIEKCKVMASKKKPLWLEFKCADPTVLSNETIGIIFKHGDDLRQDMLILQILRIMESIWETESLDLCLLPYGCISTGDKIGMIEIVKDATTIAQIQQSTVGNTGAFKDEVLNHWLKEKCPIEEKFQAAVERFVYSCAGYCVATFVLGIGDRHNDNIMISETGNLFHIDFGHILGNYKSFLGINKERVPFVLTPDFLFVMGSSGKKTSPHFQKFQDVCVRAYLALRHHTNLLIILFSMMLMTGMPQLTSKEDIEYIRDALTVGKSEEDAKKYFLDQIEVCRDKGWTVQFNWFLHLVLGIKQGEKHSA

Regarding `CC(C)(Cc1ccccc1)Nc1nc(N2CCOCC2)nc(-n2c(C(F)F)nc3ccccc32)n1` [Compound A14, 4-(2-(difluoromethyl)-1H-benzo[d]imidazol-1-yl)-N-(2-methyl-1-phenylpropan-2-yl)-6-morpholino-1,3,5-triazin-2-amine], the 50% inhibitory concentration (IC50) was over 500 nM on PI3K alpha and 200 to 500 nM at PI3Kγ.

In the case of `CC(C)(Cc1ccccc1F)Nc1nc(N2CCOCC2)nc(-n2c(C(F)F)nc3ccccc32)n1` [Compound A15, 4-(2-(difluoromethyl)-1H-benzo[d]imidazol-1-yl)-N-(1-(2-fluorophenyl)-2-methylpropan-2-yl)-6-morpholino-1,3,5-triazin-2-amine], the 50% inhibitory concentration (IC50) on PI3K alpha is over 500 nM; on PI3Kγ, 200 to 500 nM.

For the compound `CC(C)(Cc1ccccc1Cl)Nc1nc(N2CCOCC2)nc(-n2c(C(F)F)nc3ccccc32)n1` [Compound A16, 4-(2-(difluoromethyl)-1H-benzo[d]imidazol-1-yl)-N-(1-(2-chlorophenyl)-2-methylpropan-2-yl)-6-morpholino-1,3,5-triazin-2-amine], the half-maximal inhibitory concentration (IC50) on PI3K alpha and at PI3Kγ was over 500 nM in each case.

For the compound `Cc1ccccc1CC(C)(C)Nc1nc(N2CCOCC2)nc(-n2c(C(F)F)nc3ccccc32)n1` [Compound A18, 4-(2-(difluoromethyl)-1H-benzo[d]imidazol-1-yl)-N-(2-methyl-1-(o-tolyl)propan-2-yl)-6-morpholino-1,3,5-triazin-2-amine], the half-maximal inhibitory concentration (IC50) at PI3K alpha is over 500 nM; at PI3Kγ it was 200 to 500 nM.

`COc1ccccc1CC(C)(C)Nc1nc(N2CCOCC2)nc(-n2c(C(F)F)nc3ccccc32)n1` [Compound A19, 4-(2-(difluoromethyl)-1H-benzo[d]imidazol-1-yl)-N-(1-(2-methoxyphenyl)-2-methylpropan-2-yl)-6-morpholino-1,3,5-triazin-2-amine]: at PI3K alpha, the IC50 is over 500 nM.

Regarding `COc1cccc(CC(C)(C)Nc2nc(N3CCOCC3)nc(-n3c(C(F)F)nc4ccccc43)n2)c1` [Compound A21, 4-(2-(difluoromethyl)-1H-benzo[d]imidazol-1-yl)-N-(1-(3-methoxyphenyl)-2-methylpropan-2-yl)-6-morpholino-1,3,5-triazin-2-amine], the figures for the half-maximal inhibitory concentration (IC50) on PI3K alpha and at PI3Kγ were over 500 nM and 200 to 500 nM, respectively.

Take `CC(C)(Cc1ccc(F)cc1)Nc1nc(N2CCOCC2)nc(-n2c(C(F)F)nc3ccccc32)n1` [Compound A22, 4-(2-(difluoromethyl)-1H-benzo[d]imidazol-1-yl)-N-(1-(4-fluorophenyl)-2-methylpropan-2-yl)-6-morpholino-1,3,5-triazin-2-amine]: the figures for the IC50 on PI3K alpha and at PI3Kγ were over 500 nM and 200 to 500 nM, respectively.

Turning to `CC(C)(Cc1cccc2ccccc12)Nc1nc(N2CCOCC2)nc(-n2c(C(F)F)nc3ccccc32)n1` [Compound A27, 4-(2-(difluoromethyl)-1H-benzo[d]imidazol-1-yl)-N-(2-methyl-1-(naphthalen-1-yl)propan-2-yl)-6-morpholino-1,3,5-triazin-2-amine], the 50% inhibitory concentration (IC50) on PI3K alpha was over 500 nM.

In the case of `CC(C)(Cc1ccccc1-c1ccncc1)Nc1nc(N2CCOCC2)nc(-n2c(C(F)F)nc3ccccc32)n1` [Compound A33, 4-(2-(difluoromethyl)-1H-benzo[d]imidazol-1-yl)-N-(2-methyl-1-(2-(pyridin-4-yl)phenyl)propan-2-yl)-6-morpholino-1,3,5-triazin-2-amine], the IC50 at PI3K alpha was in the range of 200 to 500 nM.

Take `CN1CCC(c2ccccc2CC(C)(C)Nc2nc(N3CCOCC3)nc(-n3c(C(F)F)nc4ccccc43)n2)CC1` [Compound A35, 4-(2-(difluoromethyl)-1H-benzo[d]imidazol-1-yl)-N-(2-methyl-1-(2-(1-methylpiperidin-4-yl)phenyl)propan-2-yl)-6-morpholino-1,3,5-triazin-2-amine]: the concentration for half-maximal inhibition (IC50) is over 500 nM at PI3K alpha and 200 to 500 nM on PI3Kγ.

As to `CC(C)(Cc1cccc(F)c1)Nc1nc(N2CCOCC2)nc(-n2c(C(F)F)nc3ccccc32)n1` [Compound A39, 4-(2-(difluoromethyl)-1H-benzo[d]imidazol-1-yl)-N-(1-(3-fluorophenyl)-2-methylpropan-2-yl)-6-morpholino-1,3,5-triazin-2-amine], the half-inhibitory concentration (IC50) was over 500 nM at PI3K alpha and 100 to 200 nM on PI3Kγ.

For `CC(C)(Cc1ccccc1-c1cccnc1)Nc1nc(N2CCOCC2)nc(-n2c(C(F)F)nc3ccccc32)n1` [Compound A40, 4-(2-(difluoromethyl)-1H-benzo[d]imidazol-1-yl)-N-(2-methyl-1-(2-(pyridin-3-yl)phenyl)propan-2-yl)-6-morpholino-1,3,5-triazin-2-amine], the IC50 on PI3K alpha and at PI3Kγ was 200 to 500 nM each time.

Regarding `COc1cc(-c2ccccc2CC(C)(C)Nc2nc(N3CCOCC3)nc(-n3c(C(F)F)nc4ccccc43)n2)ccn1` [Compound A41, 4-(2-(difluoromethyl)-1H-benzo[d]imidazol-1-yl)-N-(1-(2-(2-methoxypyridin-4-yl)phenyl)-2-methylpropan-2-yl)-6-morpholino-1,3,5-triazin-2-amine], the concentration for half-maximal inhibition (IC50) at PI3K alpha and at PI3Kγ was over 500 nM throughout.

`Cc1cc(-c2ccccc2CC(C)(C)Nc2nc(N3CCOCC3)nc(-n3c(C(F)F)nc4ccccc43)n2)ccn1` [Compound A43, 4-(2-(difluoromethyl)-1H-benzo[d]imidazol-1-yl)-N-(2-methyl-1-(2-(2-methylpyridin-4-yl)phenyl)propan-2-yl)-6-morpholino-1,3,5-triazin-2-amine]: the half-maximal inhibitory concentration (IC50) on PI3K alpha and on PI3Kγ was 200 to 500 nM throughout.

On to `CC(C)(Cc1ccccc1-c1cn[nH]c1)Nc1nc(N2CCOCC2)nc(-n2c(C(F)F)nc3ccccc32)n1` [Compound A44, 4-(2-(difluoromethyl)-1H-benzo[d]imidazol-1-yl)-N-(1-(2-(1H-pyrazol-4-yl)phenyl)-2-methylpropan-2-yl)-6-morpholino-1,3,5-triazin-2-amine], for which the 50% inhibitory concentration (IC50) is 200 to 500 nM at PI3K alpha and at most 100 nM on PI3Kγ.

With `Cn1cc(-c2ccccc2CC(C)(C)Nc2nc(N3CCOCC3)nc(-n3c(C(F)F)nc4ccccc43)n2)cn1` [Compound A45, 4-(2-(difluoromethyl)-1H-benzo[d]imidazol-1-yl)-N-(2-methyl-1-(2-(1-methyl-1H-pyrazol-4-yl)phenyl)propan-2-yl)-6-morpholino-1,3,5-triazin-2-amine], the IC50 on PI3K alpha is 100 to 200 nM; at PI3Kγ, at most 100 nM.

Regarding `Cn1nccc1-c1ccccc1CC(C)(C)Nc1nc(N2CCOCC2)nc(-n2c(C(F)F)nc3ccccc32)n1` [Compound A46, 4-(2-(difluoromethyl)-1H-benzo[d]imidazol-1-yl)-N-(2-methyl-1-(2-(1-methyl-1H-pyrazol-5-yl)phenyl)propan-2-yl)-6-morpholino-1,3,5-triazin-2-amine], the IC50 on PI3K alpha and on PI3Kγ was 200 to 500 nM in each case.

For `Cc1cccc(CC(C)(C)Nc2nc(N3CCOCC3)nc(-n3c(C(F)F)nc4ccccc43)n2)c1` [Compound A49, 4-(2-(difluoromethyl)-1H-benzo[d]imidazol-1-yl)-N-(2-methyl-1-m-tolylpropan-2-yl)-6-morpholino-1,3,5-triazin-2-amine], the values for the IC50 on PI3K alpha and on PI3Kγ were over 500 nM and 200 to 500 nM, respectively.

For `CN1CCC(c2ccccc2CC(C)(C)Nc2nc(N3CCOCC3)nc(-n3c(C(F)F)nc4ccccc43)n2)C1` (stereo not shown) [Compound A75, 4-(2-(difluoromethyl)-1H-benzo[d]imidazol-1-yl)-N-(2-methyl-1-(2-(1-methylpyrrolidin-3-yl)phenyl)propan-2-yl)-6-morpholino-1,3,5-triazin-2-amine], the IC50 on PI3Kγ lay in the range of 100 to 200 nM.
